Measurements from patent US8993717B2, “Gadd45beta targeting agents” (Imperial Innovations Limited, priority 2009, dated 2015).
Like-named read-outs stand apart in the source and are kept apart here. Square brackets hold non-standard residues; d marks the D form. Peptide text beside a SMILES is read from it. * marks the point of attachment. NHPhenethyl = c1ccc(CCN*)cc1; Cbz = O=C(OCc1ccccc1)*; NHBn = c1ccc(CN*)cc1; Bz = O=C(c1ccccc1)*; NHPh = c1ccc(N*)cc1

Assays:
Gadd45β/MKK7 interaction = molecular target: T1, Gadd45β/MKK7 interaction (Homo sapiens, UniProt O14733); assay: ELISA competition assay of biotin-hGadd45β binding to coated GST-MKK7; conditions: Table V, read-out: IC50 ELISA
T1 construct: The GST-fused full-length kinase was coated for 16 h at 4° C., at a concentration of 42 nM; made in house
T1 sequence (O14733 1-419): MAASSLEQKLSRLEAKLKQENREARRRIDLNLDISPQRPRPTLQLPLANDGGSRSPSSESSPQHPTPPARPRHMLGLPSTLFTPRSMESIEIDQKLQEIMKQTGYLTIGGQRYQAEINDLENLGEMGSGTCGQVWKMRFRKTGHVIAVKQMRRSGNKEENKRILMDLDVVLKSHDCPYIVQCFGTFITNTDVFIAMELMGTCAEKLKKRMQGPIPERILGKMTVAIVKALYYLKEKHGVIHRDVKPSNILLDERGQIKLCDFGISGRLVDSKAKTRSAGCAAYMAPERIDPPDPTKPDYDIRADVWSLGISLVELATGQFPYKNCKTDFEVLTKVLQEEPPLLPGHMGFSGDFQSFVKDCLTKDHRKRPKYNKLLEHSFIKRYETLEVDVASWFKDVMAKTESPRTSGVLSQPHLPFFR
Protocol: To evaluate the inhibitory properties of peptides, ELISA-based assays were performed. In these assays, a fusion protein of glutathione S-transferase (GST) and mitogen-activated protein kinase kinase 7 (MKK7) was coated onto wells of a 96-well plate, while biotinylated-hGadd45β was used in solution. hGadd45β was biotinylated using an EZ Link NHS-LC-biotin kit (Pierce, Rockford, Ill.), according to Tornatore et al. (Tornatore L., et al. (2008). J Mol Biol; 378:97-111).
Firstly, the association between Gadd45β and MKK7 was investigated by ELISA assays as also reported in Tornatore et al. (Tornatore L., et al. (2008). J Mol Biol; 378:97-111). The GST-fused full-length kinase was coated for 16 h at 4° C., at a concentration of 42 nM in buffer A (25 mM Tris pH 7.5, 150 mM NaCl, 1 mM DTT and 1 mM EDTA) into wells of a 96-well microliter plate. Some wells were filled with buffer alone and were used as blanks. After incubation for 16 h at 4° C., the solutions were removed and the wells were filled with 350 μL of a 1% (w/v) solution of NFDM (Non Fat Dry Milk) in PBS (phosphate buffered saline). The plate was incubated for 1 h at 37° C. in the dark. After washing with buffer T-PBS (PBS with 0.004% (v/v) Tween detergent), the wells were filled with 100 μL of biotinylated-hGadd45β at concentrations ranging from 8.4 nM to 168 nM. Each data point was performed in triplicate. Following incubation for 1 hr in the dark at 37° C. the solutions were removed and the wells were again washed with T-PBS. Then 100 μL of a 1:10,000 dilution of horseradish peroxidase-conjugated streptavidin dissolved in buffer was added to each well and the plate incubated for 1 hr at 37° C. in the dark. After removal of the enzyme solution and washing, 100 μL of the chromogenic substrate o-phenylendiamine (0.4 mg/mL in 50 mM sodium phosphate-citrate buffer, containing 0.4 mg/mL of urea in hydrogen peroxide) was added and the colour was allowed to develop in the dark for 5 min. The reaction was stopped by adding 50 μL of 2.5 M H2SO4. The absorbance at 490 nm was measured in all wells and the values were averaged after subtracting the corresponding blanks. Bound protein was then detected as described above. The molar concentration of biotinylated-hGadd45β at which the half-maximal ELISA signal is detected corresponds to the dissociation constant (KD) (Friguet B, Chaffotte A F, Djavadi-Ohaniance L, Goldberg M E. J Immunol Methods. 1985 Mar. 18; 77 (2):305-19). Binding competition assays were performed by coating GST-MKK7 at 42 nM as described, a concentration of biotinylated-hGadd45β of 21 nM (pre-saturation conditions 1:0.5 mol/mol ratio) and, in a first test, using competitors at 21 nM. The binding of biotinylated hGadd45β to GST-MKK7 was analyzed in the presence of increasing amounts of competitor peptide (concentrations ranging from 0.01 nM to 100 nM), and the values obtained with the competitor were expressed as the percentage of the binding detected in the absence of competitor. […] According to the convention adopted in the table “L-Xaa” and “D-Xaa” refer to the L and D forms of amino acid Xaa.
A simplified combinatorial peptide library (Marasco et al. 2008, Curr. Protein Pept. Sci. 9:447-67) was screened for antagonists of the Gadd45β/MKK7 interaction. This library contained a total of 12^4=20,736 different tetrapeptides formed by combinations of the following amino acid residues Gln (Q), Ser (S), Arg (R), Ala (A), Tyr (Y), Pro (P), Met (M), Cys (C), Phe (F), Leu (L), His (H), Asp (D), and was iteratively deconvoluted in four steps by ELISA competition assays using at each step coated MKK7 (42 nM), soluble-biotin-hGadd45β (21 nM) and each of the 12 sub-libraries (42 nM).

[1] = tested on: KMS12 multiple myeloma cells; assay: [3H]thymidine incorporation assay in KMS12; type: cell-based, human
Protocol: In these latter assays, the effects of Z-DTPs, Ac-DTPs and Z-LTPs on the survival/proliferation of tumour cell lines was investigated by measuring DNA synthesis using standard tritiated thymidine ([^3H]thymidine; [^3H]-TdR) uptake assays. In the analyses shown, cells were incubated for 24, 72, 120 or 144 hrs at 37° C. in the presence or absence of control or bioactive tetrapeptides, as indicated, then subjected to an additional incubation for 18 hrs with [^3H]-TdR (0.037 MBq/well, equivalent to 0.5 μCi/well). Cells were subsequently harvested onto glass fibre filter mats using a 96-well plate automated cell harvester, after which scintillation fluid was added, and [^3H]thymidine incorporation measured by liquid scintillation spectroscopy on a beta counter. The results are expressed as the percentages of the counts per minute (c.p.m.) (directly correlating with the extent of cell proliferation) measured with tetrapeptide-treated cultures relative to the c.p.m. measured with the corresponding cultures incubated with medium alone (untreated cells). All experiments were performed in triplicate.

[2] = tested on: KMS11 multiple myeloma cells; assay: [3H]thymidine incorporation assay in KMS11; type: cell-based, human
Protocol: Cultures of multiple myeloma cells and treatments with Z-DTPs were carried out as described in Example 8 (see below). The effects of Z-DTPs on the survival/proliferation of multiple myeloma cells were evaluated by the use of [^3H]thymidine) incorporation assays, performed as also described in Example 8. The amount of cell proliferation measured with each of the Z-DTPs' concentrations used and with the untreated cultures (i.e. cultures incubated with medium alone), was expressed as counts per minute (c.p.m.)—which directly correlate with the extent of cell proliferation. All experiments were performed in triplicate.
In these latter assays, the effects of Z-DTPs, Ac-DTPs and Z-LTPs on the survival/proliferation of tumour cell lines was investigated by measuring DNA synthesis using standard tritiated thymidine ([^3H]thymidine; [^3H]-TdR) uptake assays. In the analyses shown, cells were incubated for 24, 72, 120 or 144 hrs at 37° C. in the presence or absence of control or bioactive tetrapeptides, as indicated, then subjected to an additional incubation for 18 hrs with [^3H]-TdR (0.037 MBq/well, equivalent to […]). Cells were subsequently harvested onto glass fibre filter mats using a 96-well plate automated cell harvester, after which scintillation fluid was added, and [^3H]thymidine incorporation measured by liquid scintillation spectroscopy on a beta counter. The results are expressed as the percentages of the counts per minute (c.p.m.) (directly correlating with the extent of cell proliferation) measured with tetrapeptide-treated cultures relative to the c.p.m. measured with the corresponding cultures incubated with medium alone (untreated cells). All experiments were performed in triplicate.

[3] = Day 3, read-out: IC50 [H^3] thymidine incorporation assay in KMS11
[4] = Day 6, read-out: IC50 [H^3] thymidine incorporation assay in KMS11
[5] = Day 1, read-out: IC50 [H^3] thymidine incorporation assay in KMS11

| SMILES | IC50 (Gadd45β/MKK7 interaction; FIG. 3C) [µM] | IC50 [1] [µM] | IC50 [2] [µM] | IC50 (Gadd45β/MKK7 interaction; peptides 0.01-10 nM) [µM] | IC50 [2, 3] [µM] | IC50 [2, 4] [µM] | IC50 [2, 5] [µM] |
| --- | --- | --- | --- | --- | --- | --- | --- |
| O=C(O)C[C@@H](NC(=O)c1ccccc1)C(=O)N[C@H](Cc1c[nH]cn1)C(=O)Nc1ccccc1 [Compound 2, X1-Asp-His-Y1] (Bz-[dD]-[dH]-NHPh) | > 0.001 | > 10 | > 10 |  |  |  |  |
| O=C(O)C[C@@H](NC(=O)c1ccccc1)C(=O)N[C@H](Cc1c[nH]cn1)C(=O)NCc1ccccc1 [Compound 3, X1-Asp-His-Y2] (Bz-[dD]-[dH]-NHBn) | > 0.001 | > 10 | > 10 |  |  |  |  |
| O=C(O)C[C@@H](NC(=O)c1ccccc1)C(=O)N[C@H](Cc1c[nH]cn1)C(=O)NCCc1ccccc1 [Compound 4, X1-Asp-His-Y3] (Bz-[dD]-[dH]-NHPhenethyl) |  | > 10 | > 10 | 0.0005 |  |  |  |
| O=C(O)C[C@@H](NC(=O)c1ccc(O)cc1)C(=O)N[C@H](Cc1c[nH]cn1)C(=O)Nc1ccccc1 [Compound 5, X2-Asp-His-Y1] |  | > 10 | > 10 |  |  |  |  |
| O=C(O)C[C@@H](NC(=O)c1ccc(O)cc1)C(=O)N[C@H](Cc1c[nH]cn1)C(=O)NCc1ccccc1 [Compound 6, X2-Asp-His-Y2] |  | > 10 | > 10 |  |  |  |  |
| NC(=O)[C@@H](Cc1ccccc1)NC(=O)[C@@H](CC(=O)O)NC(=O)[C@@H](Cc1ccc(O)cc1)NC(=O)OCc1ccccc1 [Compound 8, Z-Tyr-Asp-Phe-NH2] (Cbz-[dY]-[dD]-[dF]-NH2) |  |  |  | 0.000162 | > 10 | > 10 |  |
| N=C(N)NCCC[C@@H](NC(=O)[C@@H](CCC(N)=O)NC(=O)[C@@H](Cc1ccc(O)cc1)NC(=O)OCc1ccccc1)C(=O)N[C@H](Cc1ccccc1)C(N)=O [Z-Tyr-Gln-Arg-Phe-NH2] (Cbz-[dY][dQ][dR][dF]-NH2) |  |  |  |  | > 10 | > 10 | > 10 |
| NC(=O)CC[C@@H](NC(=O)[C@@H](Cc1ccc(O)cc1)NC(=O)OCc1ccccc1)C(=O)N[C@H](Cc1ccccc1)C(N)=O [Z-Tyr-Gln-Phe-NH2] (Cbz-[dY]-[dQ]-[dF]-NH2) |  |  |  |  | > 10 | > 10 | > 10 |
| CC(C)C[C@@H](NC(=O)[C@@H](Cc1ccc(O)cc1)NC(=O)OCc1ccccc1)C(=O)N[C@H](CCCNC(=N)N)C(=O)N[C@H](Cc1ccccc1)C(N)=O [Z-Tyr-Leu-Arg-Phe-NH2] (Cbz-[dY][dL][dR][dF]-NH2) |  |  |  |  | > 10 | > 10 | > 10 |
| CC(C)C[C@@H](NC(=O)[C@@H](Cc1ccc(O)cc1)NC(=O)OCc1ccccc1)C(=O)N[C@H](Cc1ccccc1)C(N)=O [Z-Tyr-Leu-Phe-NH2] (Cbz-[dY]-[dL]-[dF]-NH2) |  |  |  |  | > 10 | > 10 | > 10 |
| CSCC[C@@H](NC(=O)[C@@H](Cc1ccc(O)cc1)NC(=O)OCc1ccccc1)C(=O)N[C@H](CCCNC(=N)N)C(=O)N[C@H](Cc1ccccc1)C(N)=O [Z-Tyr-Met-Arg-Phe-NH2] (Cbz-[dY][dM][dR][dF]-NH2) |  |  |  |  | > 10 | > 10 | > 10 |
| CSCC[C@@H](NC(=O)[C@@H](Cc1ccc(O)cc1)NC(=O)OCc1ccccc1)C(=O)N[C@H](Cc1ccccc1)C(N)=O [Z-Tyr-Met-Phe-NH2] (Cbz-[dY]-[dM]-[dF]-NH2) |  |  |  |  | > 10 | > 10 | > 10 |
